In series [1] the target is T1, MAO-B (Homo sapiens, UniProt P27338).
T1 sequence (P27338 1-520): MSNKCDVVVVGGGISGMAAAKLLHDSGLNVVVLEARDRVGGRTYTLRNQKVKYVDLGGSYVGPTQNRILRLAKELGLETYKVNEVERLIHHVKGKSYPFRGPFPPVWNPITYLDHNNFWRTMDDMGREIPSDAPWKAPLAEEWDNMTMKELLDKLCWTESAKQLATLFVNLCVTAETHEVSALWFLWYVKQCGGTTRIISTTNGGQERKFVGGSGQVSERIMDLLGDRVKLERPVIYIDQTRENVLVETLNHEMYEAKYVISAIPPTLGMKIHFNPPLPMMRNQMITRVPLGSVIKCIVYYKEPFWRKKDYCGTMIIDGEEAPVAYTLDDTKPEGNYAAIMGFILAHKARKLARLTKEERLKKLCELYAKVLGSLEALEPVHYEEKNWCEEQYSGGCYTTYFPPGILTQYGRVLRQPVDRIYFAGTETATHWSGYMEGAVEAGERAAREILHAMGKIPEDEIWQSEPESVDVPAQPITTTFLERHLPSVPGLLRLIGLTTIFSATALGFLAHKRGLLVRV
Kind of series: MAO-B inhibition assay (luminogenic substrate). It is filed as biochemical. The conditions noted are these: 20 min pre-incubation; 10 μM = highest concentration tested; read-out: Enzymatic Assays IC50 MAO-B. The protocol:
(§1) D. MAO-A and MAO-B inhibition assays: MAO assays included luminogenic MAO substrate, reaction buffers, Luciferin Detection, and a reconstitution buffer with esterase. The MAO reaction mixture used in the assay included microsome contained MAO-A (2 μg) or MAO-B (10 μg), 160 μM substrate for MAO-A or 16 μM substrate for MAO-B, MAO-A buffer (100 mM Hepes buffer, pH 7.5, 5% glycerol) or MAO-B buffer (100 mM Hepes, pH 7.5, 5% glycerol, 10% dimethyl sulfoxide) in a final volume of 30 μL. After 20 minutes of pre-incubation of the MAO-A or MAO-B enzyme with the test ALDH-2 inhibitor compound, the reaction was initiated by adding enzyme substrate and the […] reaction was allowed to proceed for 60 minutes. Reconstituted Luciferin Detection Reagent (30 μL) was then added is added to simultaneously stop the MAO reaction and convert the methyl ester derivative to luciferin and produce light. The amount of light produced is directly proportional to the activity of MAO. The mixtures were further incubated for 20 minutes and activity of the enzyme was determined using Perkin-Elmer Envision Reader.

The target in series [2] is T2, recombinant human ALDH-2 (Homo sapiens, UniProt P05091).
T2 sequence (P05091 18-517): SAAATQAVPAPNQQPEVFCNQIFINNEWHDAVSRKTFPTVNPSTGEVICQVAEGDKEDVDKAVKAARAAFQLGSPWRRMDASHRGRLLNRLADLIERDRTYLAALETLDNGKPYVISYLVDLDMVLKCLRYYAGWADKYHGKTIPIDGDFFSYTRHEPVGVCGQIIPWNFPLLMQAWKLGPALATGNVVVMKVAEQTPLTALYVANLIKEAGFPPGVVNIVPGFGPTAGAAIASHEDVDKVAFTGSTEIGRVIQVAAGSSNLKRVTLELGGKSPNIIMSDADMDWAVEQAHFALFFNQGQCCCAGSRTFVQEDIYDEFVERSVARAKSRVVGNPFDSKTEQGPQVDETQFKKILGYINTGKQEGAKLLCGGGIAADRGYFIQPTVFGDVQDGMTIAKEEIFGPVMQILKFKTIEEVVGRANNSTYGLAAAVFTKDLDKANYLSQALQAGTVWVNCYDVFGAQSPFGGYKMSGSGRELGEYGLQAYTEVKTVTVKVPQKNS
Nature of the series: ALDH-2 inhibition assay. It is filed as biochemical. The settings on record: 60 min pre-incubation; 10 μM = highest concentration tested; read-out: Enzymatic Assays IC50 ALDH2. The protocol:
A. ALDH-2 inhibition assay: The ALDH-2 reaction mixture used in the assay contained 125 μM formaldehyde, 75 μM NAD+, 20 mM NaCl, 10 mM MgCl2, and 20 nM recombinant human ALDH-2 in 50 mM Hepes buffer, pH 7.5 in a final volume of 10 μL using 384-well Corning 3820 plates. After 60 min of pre-incubation of the test ALDH-2 inhibitor compound with ALDH-2, the reaction was started by adding NAD+ and formaldehyde and the assay reaction mixture was allowed to proceed for 60 minutes. Activity of the ALDH-2 enzyme was determined by monitoring NADH formation using Perkin-Elmer Envision Reader with excitation and emission wavelengths set at 340 and 460 nm, respectively.

In series [3] the target is T3, recombinant human ALDH-1 (Homo sapiens, UniProt P00352).
T3 sequence (P00352 1-501): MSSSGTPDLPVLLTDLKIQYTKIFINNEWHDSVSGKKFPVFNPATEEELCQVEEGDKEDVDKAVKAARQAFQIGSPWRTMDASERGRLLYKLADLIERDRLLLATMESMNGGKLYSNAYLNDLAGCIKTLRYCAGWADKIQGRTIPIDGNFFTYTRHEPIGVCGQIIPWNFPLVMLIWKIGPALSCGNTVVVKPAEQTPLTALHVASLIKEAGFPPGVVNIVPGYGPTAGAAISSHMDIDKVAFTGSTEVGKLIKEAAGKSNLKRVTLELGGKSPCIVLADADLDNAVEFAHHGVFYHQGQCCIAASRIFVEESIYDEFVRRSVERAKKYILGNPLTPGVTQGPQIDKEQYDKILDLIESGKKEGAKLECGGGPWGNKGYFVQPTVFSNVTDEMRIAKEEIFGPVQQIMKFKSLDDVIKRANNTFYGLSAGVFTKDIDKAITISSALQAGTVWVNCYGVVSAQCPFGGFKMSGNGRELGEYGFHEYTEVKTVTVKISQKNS
Nature of the series: ALDH-1 inhibition assay. It is filed as biochemical. The conditions noted are these: 60 min pre-incubation; 10 μM = highest concentration tested; read-out: Enzymatic Assays IC50 ALDH-1.
Protocol: B. ALDH-1 inhibition assay: The ALDH-1 reaction mixture used in the assay contained 100 μM formaldehyde, 2.5 mM NAD+, 20 mM NaCl, 10 mM MgCl2, 1 mM dithiothreitol (DTT; reducing agent), and 50 nM recombinant human ALDH-1 in 50 mM Hepes buffer, pH 7.5 in a final volume of 10 μL using 384-well Corning 3820 plates. After 60 min of pre-incubation of the test ALDH-2 inhibitor compound with ALDH-1, the reaction was started by adding NAD+ and formaldehyde and the assay reaction mixture was allowed to proceed for 60 minutes. Activity of the ALDH-1 enzyme was determined by monitoring NADH formation using Perkin-Elmer Envision Reader with excitation and emission wavelengths set at 340 and 460 nm, respectively.

Series [4] deals with T4, MAO-A (Homo sapiens, UniProt P21397).
T4 sequence (P21397 1-527): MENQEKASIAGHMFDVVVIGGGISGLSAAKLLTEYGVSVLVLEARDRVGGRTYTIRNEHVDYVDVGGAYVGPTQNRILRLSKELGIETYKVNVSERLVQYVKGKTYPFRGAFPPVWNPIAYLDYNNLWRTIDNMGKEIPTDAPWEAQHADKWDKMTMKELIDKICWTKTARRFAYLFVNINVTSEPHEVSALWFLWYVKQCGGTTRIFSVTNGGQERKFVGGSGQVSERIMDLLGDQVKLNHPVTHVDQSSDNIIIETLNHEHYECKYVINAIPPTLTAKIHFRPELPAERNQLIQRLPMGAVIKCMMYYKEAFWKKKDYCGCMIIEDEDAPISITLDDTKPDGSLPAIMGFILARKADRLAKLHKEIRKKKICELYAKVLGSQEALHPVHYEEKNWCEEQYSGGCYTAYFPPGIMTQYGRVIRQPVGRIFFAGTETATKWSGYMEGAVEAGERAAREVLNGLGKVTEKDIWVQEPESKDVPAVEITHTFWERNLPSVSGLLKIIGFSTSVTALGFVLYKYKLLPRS
Nature of the series: MAO-A inhibition assay (luminogenic substrate). It counts as biochemical. The conditions noted are these: 20 min pre-incubation; 10 μM = highest concentration tested; read-out: Enzymatic Assays IC50 MAO-A. The method, then:
as §1

For series [5] the following is noted: O'Malley et al. 2021; cited from earlier work.

This passage reports IC50 and hepatotoxicity in humans results from patent US12018009B2, “ALDH-2 inhibitor compounds and methods of use” (Amygdala Neurosciences, Inc., priority 2022, dated 2024).

What is called IC50 is the point on the concentration scale where inhibition reaches its midpoint.

For `O=C1CN(c2ncc(CNC(=O)c3ccccc3Cl)cn2)CCN1` [(1b), 2-Chloro-N-((2-(3-oxopiperazin-1-yl)pyrimidin-5-yl)methyl)benzamide], the IC50 in series [1] is over 10 µM; in series [2] it was 0.264 µM; in series [3] it was over 10 µM; in series [4], over 10 µM.
With `Cc1cccc(Cl)c1C(=O)NCc1cnc(N2CCNC(=O)C2)nc1` [(1a), 2-Chloro-6-methyl-N-((2-(3-oxopiperazin-1-yl)pyrimidin-5-yl)methyl)benzamide], the IC50 is over 10 µM in series [1], 0.089 µM in series [2], over 10 µM in series [3] and over 10 µM in series [4].
On to `O=C(NCc1ccc(-c2cc[nH]c(=O)c2)cc1)c1c(Cl)cccc1Cl` [2,6-dichloro-N-[4-(2-oxo-1,2-dihydro-pyridin-4-yl)-benzyl]-benzamide], for which, in series [5], the hepatotoxicity in humans result is listed as “high levels of hepatotoxicity”.
`Cc1nccc(Cl)c1C(=O)NCc1cnc(N2CCNC(=O)C2)nc1` [(1c), 4-Chloro-2-methyl-N-((2-(3-oxopiperazin-1-yl)pyrimidin-5-yl)methyl)nicotinamide]: the IC50 in series [1] is over 10 µM; in series [2], 0.088 µM; in series [3] it was over 10 µM; in series [4] it was over 10 µM.
